From the CheMixHub viscosity set

Assay: xn = mol fraction of the nth substance listed

O=S(=O)(O)CCN1CCOCC1 + O
viscosity [mPa·s], 101.3 kPa
Conditions | x1 = 0.003662 | x1 = 0.0073 | x1 = 0.00959 | x1 = 0.01075 | x1 = 0.01417 | x1 = 0.01767
298.15 K | 0.918 | 0.98 | 1.006 | 1.035 | 1.101 | 1.153
308.15 K | 0.743 | 0.792 | 0.814 | 0.836 | 0.893 | 0.932
318.15 K | 0.616 | 0.657 | 0.676 | 0.693 | 0.737 | 0.772

CC(C)C(C)C + CCCCCCCCCCCC
298 K, 101.33 kPa
Conditions | viscosity [mPa·s]
x1 = 0.101 | 1.237
x1 = 0.2039 | 1.127
x1 = 0.297 | 1.018
x1 = 0.4013 | 0.898
x1 = 0.4985 | 0.7936
x1 = 0.6035 | 0.6871
x1 = 0.7426 | 0.5433
x1 = 0.8116 | 0.4795
x1 = 0.9014 | 0.4023

CC(C)C(C)C + CCCCCCCCCCCCCC
298 K, 101.33 kPa
Conditions | viscosity [mPa·s]
x1 = 0.1 | 1.884
x1 = 0.2006 | 1.669
x1 = 0.3044 | 1.451
x1 = 0.4033 | 1.246
x1 = 0.503 | 1.051
x1 = 0.6031 | 0.8719
x1 = 0.701 | 0.7123
x1 = 0.8016 | 0.5711
x1 = 0.9008 | 0.4356

C[n+]1ccn(CCc2ccccc2)c1.[Cl][Al-]([Cl])([Cl])[Cl] + CCCC[n+]1ccn(C)c1.[Cl][Al-]([Cl])([Cl])[Cl]
viscosity [mPa·s], 101 kPa
Conditions | 293.15 K | 298.15 K | 303.15 K | 308.15 K | 313.15 K | 318.15 K | 323.15 K
x2 = 0.5 | 92.4 | 74.8 | 60.6 | 50.1 | 41.7 | 36.4 | 32.1
x2 = 0.6 | 75.1 | 60 | 50.6 | 41.6 | 35.6 | 30.4 | 27

N#Cc1ccccc1 + CCCO
viscosity [mPa·s], 101.33 kPa
Conditions | x1 = 0.1072 | x1 = 0.2174 | x1 = 0.2995 | x1 = 0.4082 | x1 = 0.5248 | x1 = 0.5951 | x1 = 0.6992 | x1 = 0.7547 | x1 = 0.9108
303.15 K | 1.447 | 1.31 | 1.222 | 1.138 | 1.096 | 1.079 | 1.066 | 1.071 | 1.094
308.15 K | 1.308 | 1.19 | 1.113 | 1.037 | 1.006 | 0.994 | 0.986 | 0.991 | 1.018
313.15 K | 1.187 | 1.082 | 1.017 | 0.955 | 0.93 | 0.918 | 0.913 | 0.919 | 0.951

Nc1cccc2ccccc12 + CCCCO
viscosity [mPa·s], 101 kPa
Conditions | x1 = 0.03572 | x1 = 0.06889 | x1 = 0.1289 | x1 = 0.1817 | x1 = 0.2285 | x1 = 0.2702 | x1 = 0.3076
293.15 K | 3.082 | 3.202 | 3.539 | 3.906 | 4.311 | 4.724 | 5.193
303.15 K | 2.355 | 2.427 | 2.641 | 2.879 | 3.134 | 3.39 | 3.681
313.15 K | 1.828 | 1.878 | 2.019 | 2.186 | 2.355 | 2.532 | 2.719
323.15 K | 1.456 | 1.494 | 1.596 | 1.718 | 1.839 | 1.965 | 2.097

CCCOCCO + CN1CCCC1=O
298.15 K, 101 kPa
Conditions | viscosity [mPa·s]
x1 = 0.0057 | 1.693
x1 = 0.0142 | 1.702
x1 = 0.0273 | 1.719
x1 = 0.0609 | 1.756
x1 = 0.1004 | 1.803
x1 = 0.1386 | 1.847
x1 = 0.1786 | 1.891
x1 = 0.2186 | 1.94
x1 = 0.2578 | 1.996
x1 = 0.2966 | 2.038
x1 = 0.3343 | 2.078
x1 = 0.3852 | 2.132
x1 = 0.4436 | 2.186
x1 = 0.5011 | 2.244
x1 = 0.5422 | 2.28
x1 = 0.6093 | 2.311
x1 = 0.6638 | 2.343
x1 = 0.7673 | 2.355
x1 = 0.8387 | 2.365
x1 = 0.8702 | 2.362
x1 = 0.9445 | 2.359
x1 = 0.976 | 2.354

N#Cc1ccccc1 + COC(C)(C)C
viscosity [mPa·s], 101.33 kPa
Conditions | x2 = 0.1048 | x2 = 0.2024 | x2 = 0.3015 | x2 = 0.3969 | x2 = 0.4912 | x2 = 0.6055 | x2 = 0.7115 | x2 = 0.7995 | x2 = 0.905
293.15 K | 1.277 | 1.18 | 1.081 | 0.9863 | 0.8924 | 0.7787 | 0.6732 | 0.5856 | 0.4806
298.15 K | 1.185 | 1.096 | 1.006 | 0.9189 | 0.8329 | 0.7286 | 0.6319 | 0.5516 | 0.4554

CCOCCOCCOCCO + ClC=C(Cl)Cl
298.15 K, 101.33 kPa
Conditions | viscosity [mPa·s]
x1 = 0.0053 | 0.54
x1 = 0.0167 | 0.565
x1 = 0.026 | 0.587
x1 = 0.0395 | 0.618
x1 = 0.0528 | 0.651
x1 = 0.0728 | 0.707
x1 = 0.1054 | 0.809
x1 = 0.1458 | 0.947
x1 = 0.1858 | 1.103
x1 = 0.2345 | 1.326
x1 = 0.2866 | 1.587
x1 = 0.3318 | 1.832
x1 = 0.3679 | 2.048
x1 = 0.4108 | 2.323
x1 = 0.447 | 2.559
x1 = 0.4818 | 2.796
x1 = 0.523 | 3.087
x1 = 0.5639 | 3.396
x1 = 0.6278 | 3.88
x1 = 0.6904 | 4.378
x1 = 0.7278 | 4.683
x1 = 0.7721 | 5.051
x1 = 0.8271 | 5.521
x1 = 0.8733 | 5.952
x1 = 0.9136 | 6.273
x1 = 0.9317 | 6.46
x1 = 0.9672 | 6.773
x2 = 0.0194 | 6.891

Nc1cccc2ccccc12 + CCO
viscosity [mPa·s], 101 kPa
Conditions | x1 = 0.0225 | x1 = 0.04399 | x1 = 0.08427 | x1 = 0.1213 | x1 = 0.1554 | x1 = 0.187 | x1 = 0.2163
293.15 K | 1.348 | 1.454 | 1.7 | 1.987 | 2.308 | 2.667 | 3.025
303.15 K | 1.094 | 1.176 | 1.362 | 1.56 | 1.786 | 2.029 | 2.27
313.15 K | 0.903 | 0.966 | 1.104 | 1.251 | 1.41 | 1.587 | 1.759
323.15 K | 0.745 | 0.791 | 0.899 | 1.006 | 1.121 | 1.254 | 1.377

CCC(=O)OC + C1CCCCC1
viscosity [mPa·s], 101 kPa
Conditions | 298.15 K | 308.15 K
x1 = 0.0565 | 0.827 | 0.699
x1 = 0.1524 | 0.742 | 0.621
x1 = 0.2574 | 0.67 | 0.556
x1 = 0.3378 | 0.626 | 0.517
x1 = 0.4555 | 0.578 | 0.475
x1 = 0.4981 | 0.565 | 0.463
x1 = 0.5542 | 0.55 | 0.45
x1 = 0.6536 | 0.532 | 0.434
x1 = 0.7514 | 0.522 | 0.426
x1 = 0.8265 | 0.519 | 0.424
x1 = 0.9564 | 0.526 | 0.432
